From US8952024B2, “Herbicidal pyrimidone derivatives” (E I du Pont de Nemours and Company, priority 2009, dated 2015)
Read-outs that look alike come from different tables or passages of the source.

Experiments:
Assay in all cases: Test B pre-/postemergence plant response
Format in all cases: in vivo
[1] = system: nightshade (eastern black nightshade, Solanum ptycanthum); details: Preemergence
Summary of the method: (§1)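 Pre-em in loam/sand; post-em at 1–4 leaf (2–18 cm) in peat mix. Solvent + surfactant formulation. Greenhouse 13–15 d; visual % control vs untreated, 0–100.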

[2] = system: woolly cupgrass (Eriochloa villosa); details: for pest or weed control at 31 g/ha: 31 g ai/ha; for pest or weed control at 125 g/ha: 125 g ai/ha
Summary of the method: as §1

[3] = system: sunflower (common oilseed sunflower, Helianthus annuus); details: Preemergence
Summary of the method: as §1

[4] = system: large crabgrass (Digitaria sanguinalis); details: for pest or weed control at 31 g/ha: 31 g ai/ha; for pest or weed control at 125 g/ha: 125 g ai/ha
Summary of the method: as §1

[5] = system: cocklebur (Xanthium strumarium); details: for pest or weed control at 31 g/ha: 31 g ai/ha; for pest or weed control at 125 g/ha: 125 g ai/ha
Summary of the method: as §1

[6] = system: Surinam grass (Brachiaria decumbens); details: for pest or weed control at 31 g/ha: 31 g ai/ha
Summary of the method: as §1

[7] = 31 g ai/ha, scale 0 to 100 (0 no effect, 100 complete control)
[8] = 62 g ai/ha, scale 0 to 100, 0 no effect, 100 complete control
[9] = 125 g ai/ha, scale 0 to 100, 0 no effect, 100 complete control
[10] = 62 g ai/ha, postemergence, 0 is no effect, 100 is complete control, 13 to 15 days
[11] = Preemergence, 250 g ai/ha, 0 to 100 scale

In the case of COCCCn1c(-c2ccccc2)ncc(C(=O)C2=C(O)CCCC2=O)c1=O [Compound 81, 5-[(2-hydroxy-6-oxo-cyclohexen-1-yl)carbonyl]-3-(3-methoxypropyl)-2-phenyl-4(3H)-pyrimidinone], the “Plant response rating, Nightshade” value [1, 7] is reported as 98, the “Plant response rating, Nightshade” value [1, 8] is reported as 98 and the “Plant response rating, Nightshade” value [1, 9] is reported as 98. The “Nightshade plant response rating” value ([1]; 250 g ai/ha, 0 to 100 scale) was 100, the “Cupgrass, Woolly plant response rating (0 to 100 scale)” value [2, 10] was 75 and the pest or weed control at 31 g/ha ([2]; Eriochloa villosa, post-emergence, postemergence, scale 0 to 100, 0 is no effect, 100 is complete control, read-out: Plant response rating, Cupgrass, Woolly) was 65%. It also gave a pest or weed control at 125 g/ha ([2]; Eriochloa villosa, post-emergence, Postemergence, visual rating after 13 to 15 days, scale 0 (no effect) to 100 (complete control)) of 90%, a pest or weed control at 250 g/ha ([2]; Eriochloa villosa, post-emergence, Postemergence, 250 g ai/ha, scale 0 to 100 (0 no effect, 100 complete control), read-out: Plant response rating, Cupgrass, Woolly) of 90% and a pest or weed control at 31 g/ha ([2]; Eriochloa villosa, pre-emergence, Preemergence, scale 0 to 100 (0 no effect, 100 complete control), read-out: Plant response rating, Cupgrass, Woolly) of 40%. The pest or weed control at 62 g/ha ([2]; Eriochloa villosa, pre-emergence, Preemergence, 62 g ai/ha, scale 0 to 100, 0 no effect, 100 complete control, read-out: Plant response rating, Cupgrass, Woolly) was 55%, the pest or weed control at 125 g/ha ([2]; Eriochloa villosa, pre-emergence, Preemergence, scale 0 to 100, 0 no effect, 100 complete control, read-out: Plant response rating, Cupgrass, Woolly) was 75% and the “Cupgrass, Woolly plant response rating” value [2, 11] was 85. For the same compound, the “Plant response rating, Sunflower” value [3, 7] was 60, the “Plant response rating, Sunflower” value [3, 8] was 75 and the “Plant response rating, Sunflower” value [3, 9] was 85. For the same compound, the “Sunflower plant response rating” value ([3]; 250 g ai/ha, 0 to 100 scale) was 90, the “Crabgrass, Large plant response rating (0 to 100 scale)” value [4, 10] was 95 and the pest or weed control at 31 g/ha ([4]; Digitaria sanguinalis, post-emergence, postemergence, scale 0 to 100, 0 is no effect, 100 is complete control, read-out: Plant response rating, Crabgrass, Large) was 85%. The pest or weed control at 125 g/ha ([4]; Digitaria sanguinalis, post-emergence, Postemergence, visual rating after 13 to 15 days, scale 0 (no effect) to 100 (complete control)) was 95%, the pest or weed control at 250 g/ha ([4]; Digitaria sanguinalis, post-emergence, Postemergence, 250 g ai/ha, scale 0 to 100 (0 no effect, 100 complete control), read-out: Plant response rating, Crabgrass, Large) was 98% and the pest or weed control at 31 g/ha ([4]; Digitaria sanguinalis, pre-emergence, Preemergence, scale 0 to 100 (0 no effect, 100 complete control), read-out: Plant response rating, Crabgrass, Large) was 100%. The pest or weed control at 62 g/ha ([4]; Digitaria sanguinalis, pre-emergence, Preemergence, 62 g ai/ha, scale 0 to 100, 0 no effect, 100 complete control, read-out: Plant response rating, Crabgrass, Large) was 100%, the pest or weed control at 125 g/ha ([4]; Digitaria sanguinalis, pre-emergence, Preemergence, scale 0 to 100, 0 no effect, 100 complete control, read-out: Plant response rating, Crabgrass, Large) was 100% and the “Crabgrass, Large plant response rating” value [4, 11] was 100. For the same compound, the “Cocklebur plant response rating (0 to 100 scale)” value [5, 10] was 55, the “Cocklebur plant response rating” value [5, 11] was 85 and the pest or weed control at 31 g/ha ([5]; Xanthium strumarium, post-emergence, postemergence, scale 0 to 100, 0 is no effect, 100 is complete control, read-out: Plant response rating, Cocklebur) was 5%. The pest or weed control at 125 g/ha ([5]; Xanthium strumarium, post-emergence, Postemergence, visual rating after 13 to 15 days, scale 0 (no effect) to 100 (complete control)) was 65%, the pest or weed control at 250 g/ha ([5]; Xanthium strumarium, post-emergence, Postemergence, 250 g ai/ha, scale 0 to 100 (0 no effect, 100 complete control), read-out: Plant response rating, Cocklebur) was 90% and the pest or weed control at 31 g/ha ([5]; Xanthium strumarium, pre-emergence, Preemergence, scale 0 to 100 (0 no effect, 100 complete control), read-out: Plant response rating, Cocklebur) was 0%. The pest or weed control at 62 g/ha ([5]; Xanthium strumarium, pre-emergence, Preemergence, 62 g ai/ha, scale 0 to 100, 0 no effect, 100 complete control, read-out: Plant response rating, Cocklebur) was 10%, the pest or weed control at 125 g/ha ([5]; Xanthium strumarium, pre-emergence, Preemergence, scale 0 to 100, 0 no effect, 100 complete control, read-out: Plant response rating, Cocklebur) was 75% and the “Surinam Grass plant response rating (0 to 100 scale)” value [6, 10] was 90. The “Surinam Grass plant response rating” value [6, 11] was 100, the pest or weed control at 31 g/ha ([6]; Urochloa decumbens, post-emergence, postemergence, scale 0 to 100, 0 is no effect, 100 is complete control, read-out: Plant response rating, Surinam Grass) was 75% and the pest or weed control at 125 g/ha ([6]; Urochloa decumbens, post-emergence, Postemergence, 125 g ai/ha, visual rating after 13 to 15 days, scale 0 (no effect) to 100 (complete control)) was 98%. The pest or weed control at 250 g/ha ([6]; Urochloa decumbens, post-emergence, Postemergence, 250 g ai/ha, scale 0 to 100 (0 no effect, 100 complete control), read-out: Plant response rating, Surinam Grass) was 100% and the pest or weed control at 31 g/ha ([6]; Urochloa decumbens, pre-emergence, Preemergence, scale 0 to 100 (0 no effect, 100 complete control), read-out: Plant response rating, Surinam Grass) was 98%.
